Results: patent US6277825A (priority 1999, dated 2001)
Several values for one entry are separate records, joined by “and”; a condition that tells them apart may be missing. Equal values may be shown once. Read-outs that look alike come from different tables or passages of the source. Where no end group is shown, it is not given here. [ ]: non-standard residue; d: D form. Gla = N[C@@H](CC(C(=O)O)C(=O)O)C(=O)O

Columns and labels:
[1] = system: Frings audiogenic seizure-susceptible mice; details: mouse, in vivo
[2] = system: Frings audiogenic seizure susceptible mice; assay type: in vivo; details: for ED50: mouse, in vivo
[3] = system: young (<2 weeks old) mice; assay type: in vivo
[4] = 37° C.; 50 μg/ml
[5] = system: young (<2 weeks old) mice; assay type: in vivo; remark: listed apart in the source
[6] = system: young (<2 weeks old) mice; assay type: in vivo; remark: listed apart in the source
CF No. 1 mice = details: mouse, in vivo

Compound: NC(=O)OCC(COC(N)=O)c1ccccc1 [Felbamate, reference compound]
- TD50 (rotorod performance, minimal motor impairment) [1]: > 630 nmol
- animals protected ([2]; 30 min): 5/8 and 4/8

Compound: CC(C(O)c1ccc(O)cc1)N1CCC(Cc2ccccc2)CC1 (centres unmarked) [Ifenprodil, reference compound]
- P.I. (TD50/ED50) [1]: < 1
- TD50 [1]: < 25
- ED50 [2]: ~ 25 nmols

Compound: Nc1nnc(-c2cccc(Cl)c2Cl)c(N)n1 [Lamotrigine, reference compound]
- PI (TD50/ED50) [1]: > 2.0
- TD50 (rotorod performance, minimal motor impairment) [1]: > 290 nmol
- ED50 [2]: 146 nmol

Compound: CCC1(c2ccccc2)C(=O)NC(=O)NC1=O [Phenobarbitol, reference compound]
- PI (TD50/ED50) [1]: 0.5
- TD50 (rotorod performance, minimal motor impairment) [1]: 68.8 nmol

Compound: CC1(C)O[C@@H]2[C@@H](CO[C@@]3(COS(N)(=O)=O)OC(C)(C)O[C@@H]23)O1 [Topiramate, reference compound]
- TD50 (rotorod performance, minimal motor impairment) [1]: no marked
- ED50 [2]: > 150 nmol

Compound: CCCC(CCC)C(=O)O [Valproic Acid, reference compound]
- PI (TD50/ED50) [1]: 1.1-2.2
- ED50 [2]: 566 nmol

Compound: Conantokin T (GE[Gla][Gla]YQKML[Gla]NLR[Gla]AEVKKNA-NH2; N-terminus assumed; SMILES CSCC[C@H](NC(=O)[C@H](CCCCN)NC(=O)[C@H](CCC(N)=O)NC(=O)[C@H](Cc1ccc(O)cc1)NC(=O)[C@H](CC(C(=O)O)C(=O)O)NC(=O)[C@H](CC(C(=O)O)C(=O)O)NC(=O)[C@H](CCC(=O)O)NC(=O)CN)C(=O)N[C@@H](CC(C)C)C(=O)N[C@@H](CC(C(=O)O)C(=O)O)C(=O)N[C@@H](CC(N)=O)C(=O)N[C@@H](CC(C)C)C(=O)N[C@@H](CCCNC(=N)N)C(=O)N[C@@H](CC(C(=O)O)C(=O)O)C(=O)N[C@@H](C)C(=O)N[C@@H](CCC(=O)O)C(=O)N[C@H](C(=O)N[C@@H](CCCCN)C(=O)N[C@@H](CCCCN)C(=O)N[C@@H](CC(N)=O)C(=O)N[C@@H](C)C(N)=O)C(C)C) [Con T]
- Righting Reflex, mice that lost reflex/tested ([3]; 30 min): 2/4
- Righting Reflex, mice that lost reflex/tested ([3]; 60 min): 2/4
- P.I. (TD50/ED50) [1]: 13
- TD50 [1]: 0.228 nmols
- behavioral toxicity (rotorod test) [1]: No animals exhibited behavioral toxicity
- stability in biological media [4]: stable in all biological media for up to 4 hours
- Sleepy Test, positive mice/tested ([5]; 30 min): 4/4
- Sleepy Test, positive mice/tested ([5]; 60 min): 4/4
- Catalepsy Test, positive mice/tested ([6]; 30 min): 3/4
- Catalepsy Test, positive mice/tested ([6]; 60 min): 1/4
- #Protected/#Tested ([2]; 10 min): 0/9
- % Protected ([2]; 10 min): 0%
- #Protected/#Tested ([2]; 20 min): 1/2
- % Protected ([2]; 20 min): 50%
- #Protected/#Tested ([2]; 30 min): 2/6
- % Protected ([2]; 30 min): 33%
- #Protected/#Tested ([2]; 60 min): 4/6
- % Protected ([2]; 60 min): 67%
- #Protected/#Tested ([2]; 240 min): 1/6
- % Protected ([2]; 240 min): 17%
- anticonvulsant activity (CF No. 1 mice): anticonvulsant activity
